Data: patent US11530244B2, “Cyclic polypeptides for PCSK9 inhibition” (priority 2018, dated 2022)
Starred links: 1 amine or outer side, 2 acyl side, 3 side chain; linkers in the order of their positions; H or OH if unused. Positions of bridges follow the written chain, without caps; N, C: chain ends. Non-standard residues stand in square brackets, D forms with d. Residues, ends and D or L forms follow the SMILES beside them. Triazole bridges read from a SMILES are 1,4-linked. Pro(cis-4-Ph) = O=C(O)[C@@H]1C[C@H](c2ccccc2)CN1; Phe(4-COOH) = N[C@@H](Cc1ccc(C(=O)O)cc1)C(=O)O; Trp(5-F) = N[C@@H](Cc1c[nH]c2ccc(F)cc12)C(=O)O; Trp(6-F) = N[C@@H](Cc1c[nH]c2cc(F)ccc12)C(=O)O; X19 = O=C(CCCCc1ccc(CCCCN[*:1])cc1)[*:2]; Lys(N3) = [N-]=[N+]=NCCCC[C@H](N)C(=O)O; mXylylene = c1cc(C[*:1])cc(C[*:2])c1; AEF = NCCOc1ccc(C[C@H](N)C(=O)O)cc1; αMeP = C[C@@]1(C(=O)O)CCCN1; Hpra = C#CCC[C@H](N)C(=O)O; Orn = NCCC[C@H](N)C(=O)O; Ac3c = NC1(C(=O)O)CC1; Ahx = NCCCCCC(=O)O; Mpa = O=C(O)CCS

Legend:
[1] = target: human PCSK9 / human LDLR EGFa domain interaction (Homo sapiens (Human), UniProt Q8NBP7); experiment: TR-FRET assay of inhibition of the PCSK9-LDLR protein-protein interaction; format: binding; conditions: TR-FRET, 20 nM human PCSK9, 20 nM human LDLR EGFa domain, 2 hours room temperature; read-out: IC50
Sequence of human PCSK9 / human LDLR EGFa domain interaction (Q8NBP7 153-692): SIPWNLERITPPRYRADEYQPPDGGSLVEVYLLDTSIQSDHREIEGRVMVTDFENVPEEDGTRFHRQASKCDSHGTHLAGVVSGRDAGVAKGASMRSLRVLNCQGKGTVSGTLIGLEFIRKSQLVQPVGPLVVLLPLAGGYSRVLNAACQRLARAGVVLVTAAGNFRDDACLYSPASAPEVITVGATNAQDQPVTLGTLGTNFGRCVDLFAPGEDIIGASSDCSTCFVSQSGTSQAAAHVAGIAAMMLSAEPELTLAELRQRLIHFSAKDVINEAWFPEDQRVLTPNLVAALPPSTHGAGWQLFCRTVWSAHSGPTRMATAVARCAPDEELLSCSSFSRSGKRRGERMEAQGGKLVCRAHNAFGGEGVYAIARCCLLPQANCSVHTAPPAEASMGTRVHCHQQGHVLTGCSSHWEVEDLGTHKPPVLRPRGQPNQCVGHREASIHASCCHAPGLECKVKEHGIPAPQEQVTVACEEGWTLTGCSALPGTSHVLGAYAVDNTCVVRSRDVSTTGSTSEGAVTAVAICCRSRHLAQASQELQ
Sequence of human PCSK9 / human LDLR EGFa domain interaction (Q8NBP7 31-152 partner): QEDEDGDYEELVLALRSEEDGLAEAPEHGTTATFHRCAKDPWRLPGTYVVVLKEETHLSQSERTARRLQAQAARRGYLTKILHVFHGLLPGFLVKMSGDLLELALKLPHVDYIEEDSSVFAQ
In short: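 Half-maximal inhibitory concentrations came from 4-parameter fits of dose-response data. Proteins: biotinylated PCSK9, His-tagged LDLR EGFa, 20 nM each; labels 5 nM; 2 h, room temperature; buffer 50 mM HEPES, 150 mM NaCl, 5 mM CaCl2.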

PCSK9 = PCSK9 (Homo sapiens (Human), UniProt Q8NBP7); experiment: PCSK9 Alexa FRET Standard assay (displacement of AlexaFluor647 tagged cyclic peptide Reagent A); format: binding; conditions: PCSK9 Alexa FRET Standard assay, 0.5 nM PCSK9, 20 nM AF cyclic peptide Reagent A; read-out: IC50
Sequence of PCSK9 (Q8NBP7 153-692): as the sequence (Q8NBP7 153-692) above
In short: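 TR-FRET displacement: 0.5 nM biotinylated PCSK9 with 1.25 nM Strep-Eu and 20 nM AlexaFluor-tagged cyclic peptide (final) in 50 mM HEPES pH 7.4, 0.15 M NaCl, 5 mM CaCl2, 0.01% BSA, 0.01% P20, ≥2 h at room temperature. IC50 from sigmoidal fit, converted to Ki via peptide KD; falling Eu counts flagged false positives.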

Row | IC50 [1] | IC50 (PCSK9) | Structure (SMILES)
1 | 0.1 to 100 nM | 100 to 1000 nM | C[C@@]12CCCN1C(=O)[C@H](Cc1ccc(O)cc1)NC(=O)[C@H](Cc1c[nH]cn1)NC(=O)[C@H](CC(=O)O)NC(=O)[C@H](Cc1c[nH]c3ccc(F)cc13)NC(=O)[C@H](Cc1c[nH]c3ccc(F)cc13)NC(=O)CNC(=O)C1(CC1)NC(=O)CCSCc1cccc(c1)CSC[C@@H](C(N)=O)NC2=O [Compound 281] ([Mpa][Ac3c]G[Trp(5-F)][Trp(5-F)]DHY[αMeP]C-NH2; linker 1-10 via mXylylene)
2 | 1000 to 12100 nM | 1000 to 12100 nM | CC(=O)N[C@H]1CC(=O)NCCOc2ccc(cc2)C[C@@H](C(N)=O)NC(=O)[C@]2(C)CCCN2C(=O)[C@H](Cc2ccc(O)cc2)NC(=O)[C@H](Cc2c[nH]cn2)NC(=O)[C@H](CC(=O)O)NC(=O)[C@H](Cc2c[nH]c3ccc(F)cc23)NC(=O)[C@H](Cc2c[nH]c3ccc(F)cc23)NC(=O)CNC(=O)[C@H](C)NC1=O [Compound 310] (Ac-DAG[Trp(5-F)][Trp(5-F)]DHY[αMeP][AEF]-NH2; lactam 1-10)
3 | 100 to 1000 nM | 1000 to 12100 nM | CC(=O)N[C@H]1CCC(=O)NCCOc2ccc(cc2)C[C@@H](C(N)=O)NC(=O)[C@]2(C)CCCN2C(=O)[C@H](Cc2ccc(O)cc2)NC(=O)[C@H](Cc2c[nH]cn2)NC(=O)[C@H](CC(=O)O)NC(=O)[C@H](Cc2c[nH]c3ccc(F)cc23)NC(=O)[C@H](Cc2c[nH]c3ccc(F)cc23)NC(=O)CNC(=O)[C@H](C)NC1=O [Compound 311] (Ac-EAG[Trp(5-F)][Trp(5-F)]DHY[αMeP][AEF]-NH2; lactam 1-10)
4 | 100 to 1000 nM | 1000 to 12100 nM | CC(=O)N[C@H]1CCCCNC(=O)c2ccc(cc2)C[C@@H](C(N)=O)NC(=O)[C@]2(C)CCCN2C(=O)[C@H](Cc2ccc(O)cc2)NC(=O)[C@H](Cc2cnc[nH]2)NC(=O)[C@H](CC(=O)O)NC(=O)[C@H](Cc2c[nH]c3cc(F)ccc23)NC(=O)[C@H](Cc2c[nH]c3ccc(F)cc23)NC(=O)CNC(=O)[C@H](C)NC1=O [Compound 312] (Ac-KAG[Trp(5-F)][Trp(6-F)]DHY[αMeP][Phe(4-COOH)]-NH2; lactam 1-10)
5 | 100 to 1000 nM | 1000 to 12100 nM | CC(=O)N[C@H]1CCCNC(=O)c2ccc(cc2)C[C@@H](C(N)=O)NC(=O)[C@]2(C)CCCN2C(=O)[C@H](Cc2ccc(O)cc2)NC(=O)[C@H](Cc2cnc[nH]2)NC(=O)[C@H](CC(=O)O)NC(=O)[C@H](Cc2c[nH]c3cc(F)ccc23)NC(=O)[C@H](Cc2c[nH]c3ccc(F)cc23)NC(=O)CNC(=O)[C@H](C)NC1=O [Compound 314] (Ac-[Orn]AG[Trp(5-F)][Trp(6-F)]DHY[αMeP][Phe(4-COOH)]-NH2; lactam 1-10)
6 | 100 to 1000 nM | 1000 to 12100 nM | C[C@H]1NC(=O)[C@H](Cc2cnc[nH]2)NC(=O)[C@H](CC(=O)O)NC(=O)[C@H](Cc2c[nH]c3ccc(F)cc23)NC(=O)[C@H](Cc2c[nH]c3ccc(F)cc23)NC(=O)CNC(=O)[C@H](CCCCN)NC(=O)CCSCc2cccc(c2)CSC[C@@H](C(N)=O)NC(=O)[C@]2(C)CCCN2C1=O [Compound 319] ([Mpa]KG[Trp(5-F)][Trp(5-F)]DH[dA][αMeP]C-NH2; linker 1-10 via mXylylene)
7 | 100 to 1000 nM | 100 to 1000 nM | NCCCC[C@@H]1NC(=O)CCSCc2cccc(c2)CSC[C@@H](C(N)=O)NC(=O)[C@@H]2C[C@H](c3ccccc3)CN2C(=O)[C@H](Cc2ccc(O)cc2)NC(=O)[C@H](Cc2cnc[nH]2)NC(=O)[C@H](CC(=O)O)NC(=O)[C@H](Cc2c[nH]c3ccc(F)cc23)NC(=O)[C@H](Cc2c[nH]c3ccc(F)cc23)NC(=O)CNC1=O [Compound 329] ([Mpa]KG[Trp(5-F)][Trp(5-F)]DHY[Pro(cis-4-Ph)]C-NH2; linker 1-10 via mXylylene)
8 | 100 to 1000 nM | 1000 to 12100 nM | C[C@@H]1NC(=O)CCCCc2ccc(cc2)CCCCNC(=O)C[C@@H](C(=O)N[C@@H](Cc2cnc[nH]2)C(=O)N[C@@H](Cc2ccc(O)cc2)C(=O)N2CCC[C@H]2C(N)=O)NC(=O)[C@H](Cc2c[nH]c3ccc(F)cc23)NC(=O)[C@H](Cc2c[nH]c3ccc(F)cc23)NC(=O)CNC1=O [Compound 330] ([X19]AG[Trp(5-F)][Trp(5-F)]DHYP-NH2; lactam N-6)
9 | 0.1 to 100 nM | 100 to 1000 nM | CC(=O)N[C@H]1CCCCn2cc(nn2)CC[C@@H](C(N)=O)NC(=O)[C@]2(C)CCCN2C(=O)[C@H](Cc2ccc(O)cc2)NC(=O)[C@H](Cc2cnc[nH]2)NC(=O)[C@H](CC(=O)O)NC(=O)[C@H](Cc2c[nH]c3ccc(F)cc23)NC(=O)[C@H](Cc2c[nH]c3ccc(F)cc23)NC(=O)CNC(=O)[C@H](C)NC1=O [Compound 332] (Ac-[Lys(N3)]AG[Trp(5-F)][Trp(5-F)]DHY[αMeP][Hpra]-NH2; triazole 1-10)

Row | Structure (SMILES) | IC50 [1] | IC50 (PCSK9)
10 | C[C@@]12CCCN1C(=O)[C@H](Cc1ccc(O)cc1)NC(=O)[C@H](Cc1cnc[nH]1)NC(=O)[C@H](CC(=O)O)NC(=O)[C@H](Cc1c[nH]c3cc(F)ccc13)NC(=O)[C@H](Cc1c[nH]c3ccc(F)cc13)NC(=O)CNC(=O)CCCCCNC(=O)c1ccc(cc1)C[C@@H](C(N)=O)NC2=O [Compound 313] ([Ahx]G[Trp(5-F)][Trp(6-F)]DHY[αMeP][Phe(4-COOH)]-NH2; lactam N-9) | 1000 to 12100 nM | 1000 to 12100 nM
